# Reference: US20140024803A1, “18FDG MULTIMERIC POSITRON EMISSION TOMOGRAPHY IMAGING AGENTS” (priority 2012, published 2014)
# Assay: In vitro calcium salt specificity experiment (PET/CT of crystals after incubation and washing)
# Type: binding
# Conditions: 5 mg/mL calcium salts (HA, phosphate, oxalate, carbonate, pyrophosphate), 10 μCi in 100 μL PBS, 20 min at RT, washed, 10 minute static PET/CT scan
# Procedure: To determine the selectivity and specificity of ^18FDG amino-Ad-Pam-Monomer for hydroxyapatite (HA), a major mineral component of calcifications and normal bone, over other calcium salts, in the present invention an incubation of equal quantity each of Ca-hydroxyapatite (HA), Ca-pyrophosphate (CPP), Ca-phosphate (CP), Ca-oxalate (CO), and Ca-carbonate (CC) salts with ^18FDG amino-Ad-Pam-Monomer in phosphate buffered saline (PBS) is performed. PET/CT images are acquired after incubation and washing of crystals, ^18FDG amino-Ad-Pam-Monomer has about 5-fold specificity for HA over other calcium salts found in the body and permits PET/CT detection of HA with high sensitivity. However, Na^18F, the Food and Drug Administration approved imaging agent for bone scintigraphy, permits about 1.5 fold specificity for HA over other calcium salts.
# In a 96-well plate, 5 mg/mL of hydroxyapatite (HA) or the phosphate, oxalate, carbonate, and pyrophosphate salts of calcium are separately incubated with ^18FDG amino-Ad-Pam-Monomer (10 μCi) in 100 μL PBS for 20 min with continuous vortexing at RT. Crystals are washed 4 times with a 100-fold excess of PBS, centrifuged and mounted on PET/CT and 10 minute static scans are acquired. Similarly, calcium salt binding study is performed with Na^18F in a same condition.
compound,measurement,value
[18F-].[Na+] [Na^18F],specificity for HA over other calcium salts,about 1.5 fold
